The text below walks through data of US20240148821A1, “PHARMACEUTICAL USE OF CYCLIC PEPTIDE COMPOUND” (CHUGAI SEIYAKU KABUSHIKI KAISHA, priority 2021, published 2024).

Structures are written as SMILES. Numbered stars: 1 amine (or outer) side, 2 acyl side, 3 side chain; on linkers, the order of the positions; unused ones are H or OH. Bridge positions count the residues as written; N and C are the ends. Square brackets hold non-standard residues; d marks the D form. Peptide text beside a SMILES is read from it. * marks the point of attachment. hPhe(3-Cl-4-CF3) = N[C@@H](CCc1ccc(C(F)(F)F)c(Cl)c1)C(=O)O; X46 = CN([C@@H](CCC1CN(C(=O)OC(C)(C)C)C1)C(=O)[*:2])[*:1]; X13 = O=C([C@H](CCc1ccc(OC(F)(F)F)c(Cl)c1)N[*:1])[*:2]; X21 = O=C([C@H](CCc1ccc(OC(F)(F)F)c(F)c1)N[*:1])[*:2]; X23 = N#Cc1cc(CC[C@H](N[*:1])C(=O)[*:2])ccc1C(F)(F)F; X8 = CC(C)Oc1cc(CC[C@H](N[*:1])C(=O)[*:2])cc(Cl)c1Cl; X15 = O=C([C@H](CCc1cc(Cl)c(Cl)c(Cl)c1)N[*:1])[*:2]; X6 = O=C([C@H](CCc1ccc2c(c1)OC(F)(F)O2)N[*:1])[*:2]; X65 = O=C([C@H](CCCc1ccc(C(F)(F)F)cc1)N[*:1])[*:2]; X1 = O=C([C@H](CCc1ccc(OC(F)F)c(F)c1)N[*:1])[*:2]; NMePhe(4-Cl) = CN[C@@H](Cc1ccc(Cl)cc1)C(=O)O; X11 = O=C([C@H](CCc1ccc2occc2c1)N[*:1])[*:2]; X30 = O=C([C@H](CCc1ccc(Cl)cc1F)N[*:1])[*:2]; X99 = O=C([C@H](CCc1ccc(F)cc1F)N[*:1])[*:2]; X2 = COc1ccc(CC[C@H](N[*:1])C(=O)[*:2])cn1; NMeGly(cPent) = CN[C@H](C(=O)O)C1CCCC1; NMeCha = CN[C@@H](CC1CCCCC1)C(=O)O; NMeChg = CN[C@H](C(=O)O)C1CCCCC1; NMeF = CN[C@@H](Cc1ccccc1)C(=O)O; NMeD = CN[C@@H](CC(=O)O)C(=O)O; NMeL = CN[C@@H](CC(C)C)C(=O)O; NMeV = CN[C@H](C(=O)O)C(C)C; d(β3hA) = C[C@@H](N)CC(=O)O; NMeA = CN[C@@H](C)C(=O)O; Piperidide = C1CCN(*)CC1; Ac5c = NC1(C(=O)O)CCCC1; Aze = O=C(O)[C@@H]1CCN1; Sar = CNCC(=O)O

For this assay, the target named is protein-protein interaction between Kras and SOS1 (biotin-tagged human Kras loaded with GDP, His-tagged human SOS1) (Homo sapiens (Human), UniProt P01116, G12D). The experiment in a line: Protein-protein interaction inhibition between Kras and SOS1 (KrasG12D-SOS PPI) using AlphaScreen.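 Further: kras produced in E. coli, Ni-coupled donor beads and streptavidin acceptor beads, excitation 680 nm with emission detected at 520–620 nm via singlet oxygen transfer.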 The assay is classed as biochemical. The conditions noted are these: AlphaScreen; biotin-tagged human Kras loaded with GDP, His-tagged human SOS1; read-out: KRAS G12D-SOS PPI IC50. In general terms: In Alpha technology, singlet oxygen from a donor bead excites a nearby acceptor bead.
Take `CC[C@H](C)[C@@H]1NC(=O)[C@H](C)N(C)C(=O)C[C@@H](C(=O)N2CCCCC2)N(C)C(=O)[C@H](C2CCCCC2)N(C)C(=O)C2(CCCC2)NC(=O)[C@@H]2CCCN2C(=O)[C@H](CCCc2ccc(C(F)(F)F)cc2)NC(=O)CN(C)C(=O)[C@H](CC2CCCCC2)N(C)C(=O)CN(C)C(=O)CN(C)C1=O` [Compound 2055, (3S,9S,18S,21S,25S,28S,34S)-28-cyclohexyl-9-(cyclohexylmethyl)-7,10,13,16,21,22,26,29-octamethyl-18-[(1S)-1-methylpropyl]-25-(piperidine-1-carbonyl)-3-[3-[4-(trifluoromethyl)phenyl]propyl]spiro[1,4,7,10,13,16,19,22,26,29,32-undecazabicyclo[32.3.0]heptatriacontane-31,1′-cyclopentane]-2,5,8,11,14,17,20,23,27,30,33-undecone] ([NMeA]I[Sar][Sar][NMeCha][Sar][X65]P[Ac5c][NMeChg][NMeD]-Piperidide; lactam N-11): the IC50 (as a rule, the concentration at which inhibition is half-maximal) worked out at 27 nM.
On to `CC[C@H](C)[C@@H]1NC(=O)[C@H](CC(C)C)N(C)C(=O)C[C@@H](C(=O)N2CCCCC2)N(C)C(=O)[C@H](C2CCCCC2)N(C)C(=O)C2(CCCC2)NC(=O)[C@H](CCC2CN(C(=O)OC(C)(C)C)C2)N(C)C(=O)[C@H](CCc2ccc(C(F)(F)F)c(Cl)c2)NC(=O)CN(C)C(=O)[C@H](CC2CCCCC2)N(C)C(=O)CN(C)C(=O)CN(C)C1=O` [Compound 2056, tert-butyl 3-[2-[(8S,11S,17S,26S,29S,33S,36S)-11-[2-[3-chloro-4-(trifluoromethyl)phenyl]ethyl]-36-cyclohexyl-17-(cyclohexylmethyl)-29-isobutyl-9,15,18,21,24,30,34,37-octamethyl-26-[(1S)-1-methylpropyl]-7,10,13,16,19,22,25,28,31,35,38-undecaoxo-33-(piperidine-1-carbonyl)-6,9,12,15,18,21,24,27,30,34,37-undecazaspiro[4.3 3]octatriacontan-8-yl]ethyl]azetidine-1-carboxylate] ([NMeL]I[Sar][Sar][NMeCha][Sar][hPhe(3-Cl-4-CF3)][X46][Ac5c][NMeChg][NMeD]-Piperidide; lactam N-11), for which the IC50 was 13 nM.
In the case of `CC[C@H](C)[C@@H]1NC(=O)[C@H](CC(C)C)N(C)C(=O)C[C@@H](C(=O)N2CCCCC2)N(C)C(=O)[C@H](C2CCCC2)N(C)C(=O)C2(CCCC2)NC(=O)[C@@H]2CCCN2C(=O)[C@H](CCc2ccc(OC(F)(F)F)c(Cl)c2)NC(=O)CN(C)C(=O)[C@H](CC2CCCCC2)N(C)C(=O)[C@@H]2CCN2C(=O)[C@H](C)N(C)C1=O` [Compound 2057] ([NMeL]I[NMeA][Aze][NMeCha][Sar][X13]P[Ac5c][NMeGly(cPent)][NMeD]-Piperidide; lactam N-11 (inferred); C-terminus assumed), the 50% inhibitory concentration (IC50) stood at 1.1 nM.
Regarding `CC[C@H](C)[C@@H]1NC(=O)[C@H](C)N(C)C(=O)C[C@@H](C(=O)N2CCCCC2)N(C)C(=O)[C@H](C2CCCCC2)N(C)C(=O)C2(CCCC2)NC(=O)[C@@H]2CCCN2C(=O)[C@H](CCc2cc(Cl)c(Cl)c(Cl)c2)NC(=O)CN(C)C(=O)[C@H](CC2CCCCC2)N(C)C(=O)CN(C)C(=O)CN(C)C1=O` [Compound 2059, (3S,9S,18S,21S,25S,28S,34S)-28-cyclohexyl-9-(cyclohexylmethyl)-7,10,13,16,21,22,26,29-octamethyl-18-[(1S)-1-methylpropyl]-25-(piperidine-1-carbonyl)-3-[2-(3,4,5-trichlorophenyl)ethyl]spiro[1,4,7,10,13,16,19,22,26,29,32-undecazabicyclo[32.3.0]heptatriacontane-31,1′-cyclopentane]-2,5,8,11,14,17,20,23,27,30,33-undecone] ([NMeA]I[Sar][Sar][NMeCha][Sar][X15]P[Ac5c][NMeChg][NMeD]-Piperidide; lactam N-11), the IC50 came to 0.96 nM.
In the case of `CC[C@H](C)[C@@H]1NC(=O)[C@H](C)N(C)C(=O)C[C@@H](C(=O)N2CCCCC2)N(C)C(=O)[C@H](C2CCCCC2)N(C)C(=O)C2(CCCC2)NC(=O)[C@@H]2CCCN2C(=O)[C@H](CCc2cc(Cl)c(Cl)c(OC(C)C)c2)NC(=O)CN(C)C(=O)[C@H](CC2CCCCC2)N(C)C(=O)CN(C)C(=O)CN(C)C1=O` [Compound 2062] ([NMeA]I[Sar][Sar][NMeCha][Sar][X8]P[Ac5c][NMeChg][NMeD]-Piperidide; lactam N-11), the IC50 was 6.9 nM.
In the case of `CC[C@H](C)[C@@H]1NC(=O)[C@H](CC(C)C)N(C)C(=O)C[C@@H](C(=O)N2CCCCC2)N(C)C(=O)[C@H](C2CCCC2)N(C)C(=O)C2(CCCC2)NC(=O)[C@@H]2CCCN2C(=O)[C@H](CCc2ccc3occc3c2)NC(=O)CN(C)C(=O)[C@H](CC2CCCCC2)N(C)C(=O)[C@@H]2CCN2C(=O)[C@H](C)N(C)C1=O` [Compound 2063] ([NMeL]I[NMeA][Aze][NMeCha][Sar][X11]P[Ac5c][NMeGly(cPent)][NMeD]-Piperidide; lactam N-11 (inferred); C-terminus assumed), the IC50 turned out to be 8.8 nM.
Take `CC[C@H](C)[C@@H]1NC(=O)[C@H](CC(C)C)N(C)C(=O)C[C@@H](C(=O)N2CCCCC2)N(C)C(=O)[C@H](C2CCCC2)N(C)C(=O)C2(CCCC2)NC(=O)[C@@H]2CCCN2C(=O)[C@H](CCc2ccc(OC(F)(F)F)c(F)c2)NC(=O)CN(C)C(=O)[C@H](CC2CCCCC2)N(C)C(=O)[C@@H]2CCN2C(=O)[C@H](C)N(C)C1=O` [Compound 2067] ([NMeL]I[NMeA][Aze][NMeCha][Sar][X21]P[Ac5c][NMeGly(cPent)][NMeD]-Piperidide; lactam N-11 (inferred); C-terminus assumed): the IC50 amounted to 0.84 nM.
As to `CC[C@H](C)[C@@H]1NC(=O)[C@H](CC(C)C)N(C)C(=O)C[C@@H](C(=O)N2CCCCC2)N(C)C(=O)[C@H](C2CCCC2)N(C)C(=O)C2(CCCC2)NC(=O)[C@@H]2CCCN2C(=O)[C@H](CCc2ccc(C(F)(F)F)c(C#N)c2)NC(=O)CN(C)C(=O)[C@H](CC2CCCCC2)N(C)C(=O)[C@@H]2CCN2C(=O)[C@H](C)N(C)C1=O` [Compound 2072] ([NMeL]I[NMeA][Aze][NMeCha][Sar][X23]P[Ac5c][NMeGly(cPent)][NMeD]-Piperidide; lactam N-11 (inferred); C-terminus assumed), the IC50 worked out at 0.42 nM.
On to `CC[C@H](C)[C@@H]1NC(=O)[C@H](CC(C)C)N(C)C(=O)C[C@@H](C(=O)N2CCCCC2)N(C)C(=O)[C@H](C2CCCC2)N(C)C(=O)C2(CCCC2)NC(=O)[C@@H]2CCCN2C(=O)[C@H](CCc2ccc3c(c2)OC(F)(F)O3)NC(=O)CN(C)C(=O)[C@H](CC2CCCCC2)N(C)C(=O)[C@@H]2CCN2C(=O)[C@H](C)N(C)C1=O` [Compound 2074] ([NMeL]I[NMeA][Aze][NMeCha][Sar][X6]P[Ac5c][NMeGly(cPent)][NMeD]-Piperidide; lactam N-11 (inferred); C-terminus assumed), for which the IC50 amounted to 2.7 nM.
For the compound `CC[C@H](C)[C@@H]1NC(=O)[C@H](CC(C)C)N(C)C(=O)C[C@@H](C(=O)N2CCCCC2)N(C)C(=O)[C@H](C2CCCC2)N(C)C(=O)C2(CCCC2)NC(=O)[C@@H]2CCCN2C(=O)[C@H](CCc2ccc(OC(F)F)c(F)c2)NC(=O)CN(C)C(=O)[C@H](CC2CCCCC2)N(C)C(=O)[C@@H]2CCN2C(=O)[C@H](C)N(C)C1=O` [Compound 2076] ([NMeL]I[NMeA][Aze][NMeCha][Sar][X1]P[Ac5c][NMeGly(cPent)][NMeD]-Piperidide; lactam N-11 (inferred); C-terminus assumed), the IC50 came out at 2.5 nM.
Next, `CC[C@H](C)[C@@H]1NC(=O)[C@H](C)N(C)C(=O)C[C@@H](C(=O)N2CCCCC2)N(C)C(=O)[C@H](C(C)C)N(C)C(=O)C2(CCCC2)NC(=O)[C@@H]2CCCN2C(=O)[C@H](CCc2cc(Cl)c(Cl)c(OC(C)C)c2)NC(=O)CN(C)C(=O)[C@H](CC2CCCCC2)N(C)C(=O)CN(C)C(=O)CN(C)C1=O` [Compound 2079] ([NMeA]I[Sar][Sar][NMeCha][Sar][X8]P[Ac5c][NMeV][NMeD]-Piperidide; lactam N-11): 17 nM; `CC[C@H](C)[C@@H]1NC(=O)[C@H](CC(C)C)N(C)C(=O)C[C@@H](C(=O)N2CCCCC2)N(C)C(=O)[C@H](C2CCCC2)N(C)C(=O)C2(CCCC2)NC(=O)[C@@H]2CCCN2C(=O)[C@H](CCc2ccc(OC)nc2)NC(=O)CN(C)C(=O)[C@H](CC2CCCCC2)N(C)C(=O)[C@@H]2CCN2C(=O)[C@H](C)N(C)C1=O` [Compound 2084] ([NMeL]I[NMeA][Aze][NMeCha][Sar][X2]P[Ac5c][NMeGly(cPent)][NMeD]-Piperidide; lactam N-11 (inferred); C-terminus assumed): 130 nM.
On to `CC[C@H](C)[C@@H]1NC(=O)[C@H](C)N(C)C(=O)C[C@@H](C)NC(=O)[C@H](CC(C)C)N(C)C(=O)[C@H](Cc2ccccc2)N(C)C(=O)[C@H](CC(C)C)NC(=O)[C@H](CCc2ccc(Cl)cc2F)NC(=O)CN(C)C(=O)[C@H](Cc2ccc(Cl)cc2)N(C)C(=O)CN(C)C(=O)CN(C)C1=O` [Compound 2086] (cyclo(I[Sar][Sar][NMePhe(4-Cl)][Sar][X30]L[NMeF][NMeL][d(β3hA)][NMeA])), for which the IC50 came out at 100 nM.
The figure for `CC[C@H](C)[C@@H]1NC(=O)[C@H](C)N(C)C(=O)C[C@@H](C)NC(=O)[C@H](CC(C)C)N(C)C(=O)[C@H](Cc2ccccc2)N(C)C(=O)[C@H](CC(C)C)NC(=O)[C@H](CCc2ccc(C(F)(F)F)c(Cl)c2)NC(=O)CN(C)C(=O)[C@H](Cc2ccc(Cl)cc2)N(C)C(=O)CN(C)C(=O)CN(C)C1=O` [Compound 2088] (cyclo(I[Sar][Sar][NMePhe(4-Cl)][Sar][hPhe(3-Cl-4-CF3)]L[NMeF][NMeL][d(β3hA)][NMeA])) is 30 nM; for `CC[C@H](C)[C@@H]1NC(=O)[C@H](C)N(C)C(=O)C[C@@H](C)NC(=O)[C@H](CC(C)C)N(C)C(=O)[C@H](Cc2ccccc2)N(C)C(=O)[C@H](CC(C)C)NC(=O)[C@H](CCc2ccc(F)cc2F)NC(=O)CN(C)C(=O)[C@H](Cc2ccc(Cl)cc2)N(C)C(=O)CN(C)C(=O)CN(C)C1=O` [Compound 2089] (cyclo(I[Sar][Sar][NMePhe(4-Cl)][Sar][X99]L[NMeF][NMeL][d(β3hA)][NMeA])) it is 300 nM.
